Test results as given in patent publication US8163700B2, “Inhibitors of myelin-associated glycoprotein (MAG) activity for regulating neural growth and regeneration” (Research Foundation of City University of New York, priority 2002, dated 2012).
Substitutions are numbered along the chain they refer to. In names and notes the source's numbering stands. Entries after “also recorded” stand apart in the source; their conditions may differ.

B1: MAG(L346D)-Fc: murine MAG-Fc with point mutation L346D, Ig domain 4 (protein, UniProt P20917 20-516, looked up, variant L346D)
extracellular domain: GHWGAWMPSTISAFEGTCVSIPCRFDFPDELRPAVVHGVWYFNSPYPKNYPPVVFKSRTQVVHESFQGRSRLLGDLGLRNCTLLLSTLSPELGGKYYFRGDLGGYNQYTFSEHSVLDIVNTPNIVVPPEVVAGTEVEVSCMVPDNCPELRPELSWLGHEGLGEPTVLGRLREDEGTWVQVSLLHFVPTREANGHRLGCQAAFPNTTLQFEGYASLDVKYPPVIVEMNSSVEAIEGSHVSLLCGADSNPPPLLTWMRDGMVLREAVAKSLYLDLEEVTPGEDGVYACLAENAYGQDNRTVELSVMYAPWKPTVNGTVVAVEGETVSIDCSTQSNPDPILTIFKEKQILATVIYESQLQLELPAVTPEDDGEYWCVAENQYGQRATAFNLSVEFAPIILLESHCAAARDTVQCLCVVKSNPEPSVAFELPSRNVTVNETEREFVYSERSGLLLTSILTIRGQAQAPPRVICTSRNLYGTQSLELPFQGAHRLMWAKIGP
modifications: extracellular domain Fc fusion
B2: MAG(E410K)-Fc: murine MAG-Fc with point mutation E410K, Ig domain 4/5 (protein, UniProt P20917 20-516, looked up, variant E410K)
extracellular domain: B1 extracellular domain with D327L, E391K
modifications: extracellular domain Fc fusion

tested on: cerebellar neurons; assay: Neurite outgrowth on L1-Fc substrate in the presence of soluble MAG-Fc chimeras (FIG. 3); assay type: cell-based; details: soluble protein 25 μg/ml, 18 hours, compared to control chimera
Experimental: FIG. 3 Inhibition of neurite outgrowth from cerebellar neurons by MAG-Fc Derivatives Cerebellar neurons were isolated (Example 1) and plated onto a growth promoting substrate of L1 protein (Example 4). A control MUC-Fc fusion (clear bar), wild-type MAG-Fc (striped bar) and MAG-Fc derivatives having point mutations in MAG Ig-like domains 4 or 5 (grey bars) were constructed (Example 4) and added in soluble form to neurons (25 μg/ml). After 18 hours, cultures were fixed and stained for GAP-43 antigen. Neurite length was measured and the average length was calculated for 180-200 neurons (+/−SEM).
Individual wells of an eight-chamber tissue culture plastic slide (Lab-Tek, Nuc. Inc.) were incubated with 0.3 nil of 16.6 μg/ml poly-1-lysine in sterile water for at least one hour under sterile conditions. Each well was washed twice with 400 μl of a 0.1M sodium bicarbonate solution, pH 9.6, and then received 0.3 ml of 0.1M sodium bicarbonate solution, pH 9.6, containing 15 μg/ml goat anti-human IgG (Fc-specific) monoclonal antibody (Sigma). The wells were incubated for 2 hours (h) at 37° C., and washed three times with 0.4 ml of ice-cold DMEM. Each well then received 0.3 nil of DMEM containing 40 μg/ml of L1-Fc and was incubated for 2-4 h at 37° C. The welts were washed twice DMEM.
Cerebellar neurons (post-natal days 2-7) were dissociated by trypsinization as described in Example 1, except that the dissociated neurons were resuspended in 5 ml of SATO medium containing 2% dialyzed FBS. To an individual well coated with a monolayer of L1-Fc as described above, 5.0×10^4 cerebellar neurons were added, followed by addition of one of the mutant MAG-Fc or MUC18-Fc chimeric soluble protein described above at a concentration of 25 μg/ml. Neurons were cultured for 18 hours at 37° C., and then fixed and stained for GAP43 essentially as described in Example 2. Neurite length was measured for 180-200 neurons.

Question: How did the “inhibition of neurite outgrowth (in words)” value turn out when B1 was run?
Answer: The value was “inhibited neurite outgrowth as effectively as MAG-Fc”.

Question: For B2, which “inhibition of neurite outgrowth (in words)” value is on record?
Answer: The value was “inhibited neurite outgrowth as effectively as MAG-Fc”.

tested on: wild-type MAG-expressing cells; assay: Neurite outgrowth on MAG-expressing cells in the presence of MAG, Nogo and OMgp peptides (Example 6); assay type: cell-based; details: tested as described in Example 5; example written in present tense
Source text: Peptides corresponding to amino acid residues […] of MAG (MAG(343-371)), amino acid residues 363-397 (MAG(363-397)), amino acid residues 394-428 (MAG(394-428)), amino acid residues 422-451 (MAG(422-451)), amino acid residues 442-471 (MAG(442-471)), and amino acid residues 461-498 (MAG(461-498)) were synthesized. Peptides were obtained from SynPep Corp. (Dublin, Calif.). MAG(343-371), MAG(363-397) and MAG(394-428) correspond to amino acid residues from the Ig4 domain of MAG. MAG(422-451), MAG(442-471) and MAG(461-498) corresponds to amino acid residues from the Ig5 domain of MAG. […] Results are shown in FIG. 4 (and are represented as number of neurons with processes longer than 2-times the cell diameter). […] Results are shown in FIG. 5 (and are represented as average neurite length for 180-200 neurons).
Peptides corresponding to MAG amino acid residues 437-441 (M437), 446-455 (M446), 450-455 (M450), 466-471 (M466); and 472-477 (M472) are constructed and tested in neurite outgrowth assays as described in Example 5. (See peptides in FIG. 18).
Peptides corresponding to Nogo-66 amino acid residues 13-17 (N13), 22-31(N22-1), 22-34 (N22-2), 26-31 (N26-1); 26-34 (N26-2); 9-33 (N-9-1); 9-34 (N-9-2); 38-62 (N38); 42-47 (N42); and 48-53 (N48) are also constructed and tested in neurite outgrowth assays as described in Example 5.
Peptides corresponding to OMgp amino acid residues 206-210 (O206), 215-224 (O215), 219-224 (O219), 202-226 (O202); 231-255 (O231), 235-240 (O235) 241-246 (O241) are constructed and tested in neurite outgrowth assays as described in Example 5.

Question: With “M437: peptide of MAG amino acid residues 437-441 (SEQ ID NO: 17) (NPEPS)” as the molecule, how does the “effect on the ability of wild-type MAG-expressing cells to inhibit neurite outgrowth” value (shortened to “effect … to inhibit neurite outgrowth”) read?
Answer: Its value is “reduce the ability of the wild-type MAG-expressing cells to inhibit neurite outgrowth”.

Question: For “M446: peptide of MAG amino acid residues 446-455 (SEQ ID NO: 18) (LPSRNVTVNE)”, which “effect … to inhibit neurite outgrowth” value is on record?
Answer: Its value is “reduce the ability of the wild-type MAG-expressing cells to inhibit neurite outgrowth”.

Question: “M450: peptide of MAG amino acid residues 450-455 (SEQ ID NO: 19) (NVTVNE)” was tested. Which “effect … to inhibit neurite outgrowth” value did it give?
Answer: Its value is “reduce the ability of the wild-type MAG-expressing cells to inhibit neurite outgrowth”.

Question: “M466: peptide of MAG amino acid residues 466-471 (SEQ ID NO: 21) (SGLLLT)” was tested. Which “effect … to inhibit neurite outgrowth” value did it give?
Answer: The value was “reduce the ability of the wild-type MAG-expressing cells to inhibit neurite outgrowth”.

Question: Which “effect … to inhibit neurite outgrowth” value does the source give for “M472: peptide of MAG amino acid residues 472-477 (SEQ ID NO: 22) (SILTLR)” here?
Answer: Its value is “reduce the ability of the wild-type MAG-expressing cells to inhibit neurite outgrowth”.

Question: With “N38: peptide of Nogo-66 amino acid residues 38-62 (SEQ ID NO: 32) (SNSALGHVNSTIKELRRLFLVDDLV)” as the molecule, how does the “effect … to inhibit neurite outgrowth” value read?
Answer: Its value is “reduce the ability of wild-type MAG-expressing cells to inhibit neurite outgrowth; also recorded: reduce the ability of the wild-type MAG-expressing cells to inhibit neurite outgrowth”.

Question: How did the “effect … to inhibit neurite outgrowth” value turn out when “N42: peptide of Nogo-66 amino acid residues 42-47 (EEDEDE; Nogo-66; UniProt Q9NQC3 42-47, looked up, fragment)” was run?
Answer: The value was “reduce the ability of wild-type MAG-expressing cells to inhibit neurite outgrowth; also recorded: reduce the ability of the wild-type MAG-expressing cells to inhibit neurite outgrowth”.

Question: For “N48: peptide of Nogo-66 amino acid residues 48-53 (DLEELE; Nogo-66; UniProt Q9NQC3 48-53, looked up, fragment)”, which “effect … to inhibit neurite outgrowth” value is on record?
Answer: Its value is “reduce the ability of wild-type MAG-expressing cells to inhibit neurite outgrowth; also recorded: reduce the ability of the wild-type MAG-expressing cells to inhibit neurite outgrowth”.

Question: Which “effect … to inhibit neurite outgrowth” value does the source give for “N-9-1: peptide of Nogo-66 amino acid residues 9-33 (LVSSSDSPPRPQPAFKYQFVREPED; Nogo-66; UniProt Q9NQC3 9-33, looked up, fragment)” here?
Answer: The value was “reduce the ability of wild-type MAG-expressing cells to inhibit neurite outgrowth; also recorded: reduce the ability of the wild-type MAG-expressing cells to inhibit neurite outgrowth”.

Question: Which “effect … to inhibit neurite outgrowth” value does the source give for “N-9-2: peptide of Nogo-66 amino acid residues 9-34 (LVSSSDSPPRPQPAFKYQFVREPEDE; Nogo-66; UniProt Q9NQC3 9-34, looked up, fragment)” here?
Answer: The value was “reduce the ability of wild-type MAG-expressing cells to inhibit neurite outgrowth; also recorded: reduce the ability of the wild-type MAG-expressing cells to inhibit neurite outgrowth”.

Question: Which “effect … to inhibit neurite outgrowth” value does the source give for “O202: peptide of OMgp amino acid residues 202-226 (SEQ ID NO: 38) (KFTFIPEQSFDQLLQLQEITLHNNR)” here?
Answer: The value was “reduce the ability of the wild-type MAG-expressing cells to inhibit neurite outgrowth”.

Question: With “O206: peptide of OMgp amino acid residues 206-210 (SEQ ID NO: 35) (IPEQS)” as the molecule, how does the “effect … to inhibit neurite outgrowth” value read?
Answer: The value was “reduce the ability of the wild-type MAG-expressing cells to inhibit neurite outgrowth”.

Question: Which “effect … to inhibit neurite outgrowth” value does the source give for “O215: peptide of OMgp amino acid residues 215-224 (SEQ ID NO: 36) (LQLQEITLHN)” here?
Answer: The value was “reduce the ability of the wild-type MAG-expressing cells to inhibit neurite outgrowth”.

Question: Which “effect … to inhibit neurite outgrowth” value does the source give for “O219: peptide of OMgp amino acid residues 219-224 (SEQ ID NO: 37) (EITLHN)” here?
Answer: The value was “reduce the ability of the wild-type MAG-expressing cells to inhibit neurite outgrowth”.

Question: With “O231: peptide of OMgp amino acid residues 231-255 (SEQ ID NO: 39) (HKQNITYLLKWVMETKAHVIGTPCS)” as the molecule, how does the “effect … to inhibit neurite outgrowth” value read?
Answer: Its value is “reduce the ability of the wild-type MAG-expressing cells to inhibit neurite outgrowth”.

Question: Which “effect … to inhibit neurite outgrowth” value does the source give for “O235: peptide of OMgp amino acid residues 235-240 (SEQ ID NO: 40) (ITYLLK)” here?
Answer: The value was “reduce the ability of the wild-type MAG-expressing cells to inhibit neurite outgrowth”.

Question: For “O241: peptide of OMgp amino acid residues 241-246 (SEQ ID NO: 41) (WVMETK)”, which “effect … to inhibit neurite outgrowth” value is on record?
Answer: Its value is “reduce the ability of the wild-type MAG-expressing cells to inhibit neurite outgrowth”.
